Structures can show the parent of a compound that is named as a salt. Where two headings read alike, the source gives them in different places.
What was measured:
[1] = tested on: maximal electroshock seizures; experiment: Maximal electroshock seizure (MES) test; type: in vivo, mice; settings: for responders at 100 mg/kg / ED50: Mus musculus; for responders at 100 mg/kg / MES: tested animals protected: ip, 0.5 h; for ED50: mice ip, 95% confidence limit in brackets
Experimental: The MES test was performed as previously described. Stimuli (25 mA, 0.2 s, 50 Hz) were generated by a constant current stimulator (Rodent shocker, Type 221, Hugo Sachs Elektronik, Germany) and delivered with the use of auricular electrodes. During the stimulation, each mouse was restrained manually, and immediately after the stimulation gently released for observation. The endpoint was the tonic extension of the hind limbs. Mice not displaying hindlimb tonic extension were considered to be protected from seizure. The initial anticonvulsant screening of the tested compounds was performed at a fixed dose of 100 mg/kg (four mice per group). […] To evaluate the ED50, at least three groups of animals were injected with various doses of tested compounds. Each group consisted of six animals.

[2] = tested on: 6 Hz psychomotor seizures; experiment: 6 Hz (32 mA) psychomotor seizure test; type: in vivo, mice; settings: for ED50 / responders at 100 mg/kg: Mus musculus; for ED50 / PI (TD50/ED50), 6 Hz: mice ip; for ED50: 95% confidence limit in brackets; for responders at 100 mg/kg / 6 Hz: tested animals protected: ip, 0.5 h
Excerpt: Psychomotor seizures were induced via corneal stimulation (6 Hz, 32 mA, 0.2 ms rectangular pulse width, 3 s duration) using a constant-current device (ECT Unit 57800, Ugo Basile, Italy). A drop of 1% solution of lidocaine hydrochloride was applied to the mouse corneas before stimulation to provide local anesthesia and ensure optimal current conductivity. After the electrical stimulation, mice were gently released and observed for the presence or absence of seizure activity, being characterized by immobility associated with rearing, forelimb clonus, twitching of the vibrissae, stun, and Straub-tail. Lack of the above symptoms or their cessation within 10 s from the stimulation was considered as absence of seizure activity. The initial anticonvulsant screening of the tested compounds was performed at a fixed dose of 100 mg/kg (four mice per group). Then ED50 was calculated for active compounds as described above.

[3] = tested on: PTZ-induced clonic seizures; experiment: Subcutaneous pentylenetetrazole (scPTZ) seizure test; type: in vivo; settings: mice, 100 mg/kg
Experimental: Clonic convulsions were induced by the subcutaneous (sc) administration of PTZ at a dose of 100 mg/kg. After PTZ injection, the mice were placed separately and observed during the next 30 min for the occurrence of clonic seizures. Clonic seizures were defined as clonus of the whole body lasting more than 3 s, with an accompanying loss of righting reflex. The latency to first clonus, the number of seizure episodes, and mortality rate were noted and compared with vehicle-treated and drug-treated groups. The absence of clonic convulsions within the observed time period was interpreted as the compound’s ability to protect against PTZ-induced seizures.

[4] = tested on: motor impairment on rotarod; experiment: Rotarod test (acute neurotoxicity, NT); type: in vivo; settings: ip, 100 mg/kg, 0.5 h
Experimental: In this test mice were trained to balance on an accelerating rotarod that rotated at 10 rotations per minute (Rotarod apparatus, May Commat RR0711, Turkey; rod diameter: 3 cm). During the training session, the animals were placed on a rotating rod for 3 min with an unlimited number of trials. Proper experiment was conducted 24 h after the training trial. On the test day, trained mice were intraperitoneally pretreated with the test compound at a dose of 100 mg/kg and just before the MES test were tested on the rotarod. Neurotoxicity was indicated by the inability of the animal to maintain equilibration on the rod for 1 min. […] Each group consisted of six animals.

[5] = tested on: acetic acid-induced writhing behavior; experiment: Acetic acid-induced writhing test; type: in vivo; settings: mice, ip
Experimental: Mice were injected with the test compound or vehicle by intraperitoneally route (ip), and 30 min later, 0.9 % acetic acid solution was injected ip and the animals were placed into the glass beakers. The writhing response (lengthwise stretching of the torso, concave arching of the back, and extension of the hind limbs) was recorded for 30 min. The analgesic effect of the tested substances was determined by a decrease in the number of writhes observed and the results were expressed as percent inhibition of writhing behavior (as index of analgesia), and was calculated using the following formula: %Inhibition=(NA−NB)/NA×100, where NA—number of writhes in vehicle group, NB—number of writhes in drug-treated group.

[6] = tested on: latency time to pain reaction; experiment: Hot plate test; type: in vivo; settings: mice, ip, 30 mg/kg
Experimental: The hot plate test was carried out based on the Eddy and Leimbach (1953) method. In this test, the apparatus was equipped with an electrically heated surface with a temperature controller that maintains surface temperature to a set point. Herein, the temperature was set at 55 °C. The animals were treated ip either with the test compounds, or vehicle 30 min before placing the animal on a hot plate apparatus. Latency time to pain reaction, i.e., the time until the animal licked its back paws or jumped was recorded by means of the stopwatch.

[7] = tested on: Voltage-Sensitive Na+ Channel (site 2); experiment: Radioligand binding, [3H]BTX, Cerep; settings: 100 µM, rat cerebral cortex synaptoneurosomal preparations
Experimental: (§1) Binding and functional studies were performed commercially in Cerep Laboratories (Poitiers, France) using testing procedures described elsewhere (Na^+ channel-site 2 [27], L-type Ca^2+ channel, dihydropyridine site, TRPV1 (VR1) (h) (antagonist effect), GABA transporter (GAT)). All experiments were performed in duplicate.

[8] = tested on: Voltage-Sensitive Ca2+ Channel L-type (dihydropyridine site); experiment: Radioligand binding, [3H]nitrendipine, Cerep; settings: 100 µM, rat cerebral cortex synaptoneurosomal preparations
Experimental: as §1

[9] = tested on: GABA Transporter (GAT); experiment: Radioligand binding, [3H]GABA, Cerep; settings: 100 µM, rat cerebral cortex synaptoneurosomal preparations
Experimental: as §1

[10] = molecular target: T1, TRPV1 receptor (Homo sapiens, UniProt Q8NER1); experiment: TRPV1 (VR1) (h) antagonist effect, Cerep; type: biochemical; settings: 100 µM
T1 construct: Cerep Laboratories (Poitiers, France)
Experimental: as §1

[11] = Hepatotoxicity, PrestoBlue viability assay; type: cell-based, human; settings: human, Hep G2 cells, 1–100 μM, read-out: Hep G2 cell viability
Experimental: (§2) Hepatotoxicity of tested compounds was assessed in PrestoBlue (Thermo Fisher Scientific, Waltham, MA, USA) Experiments on microplate reader (SpectraMax® iD3, Molecular Devices, San Jose, CA, USA) using human hepatocellular carcinoma cells (Hep G2) ATCC® […]. The cells were cultured in standard conditions (37 °C, 5% CO2), in Dulbecco’s Modified Eagle’s Medium-high glucose, (DMEM, Gibco, Thermo Fisher Scientific, Waltham, MA, USA) supplemented with 10% fetal bovine serum (Thermo Fisher Scientific, Waltham, MA, USA), with added 100 IU/mL penicillin (Sigma Aldrich, Steinheim, Germany) and 100 µg/mL streptomycin (Sigma Aldrich). PrestoBlue reagent is a resazurin-based solution that functions as a cell viability indicator. Metabolically active cells are capable of reducing the PrestoBlue reagent, with the colorimetric changes used as an indicator to quantify the viability of cells in culture. This change can be determined by measuring the fluorescence. After 24 h of incubation with the compounds PrestoBlue reagent was added to wells of a microplate. After 20 min of incubation at 37 °C, the fluorescence intensity (EX 530; EM 580 nm) was measured in a plate reader. Viability values were calculated as a percentage of live cells with respect to the control sample (DMSO). The negative control was medium without cells. Astemizole was used as a reference substance.

[12] = Rotarod test (acute neurotoxicity, NT); settings: mouse, in vivo, mice ip
[13] = tested on: Hep G2 cells; experiment: Hepatotoxicity, PrestoBlue viability assay; type: cell-based, human; settings: 24 h; for Hepatotoxicity in Hep G2 cells, in words: 1 and 10 μM; for Inhibition of viability of Hep G2 cells: 100 and 50 μM
Experimental: as §2

[14] = tested on: maximal electroshock seizures; settings: cited from earlier work
[15] = tested on: 6 Hz psychomotor seizures; settings: mice ip, reference AEDs, cited from earlier work; for 6 Hz ED50: 32 mA
[16] = mice, 100 mg/kg, read-out: MES: number of mice protected/number of mice tested (converted)
[17] = mice, 100 mg/kg, 32 mA, read-out: 6 Hz: number of mice protected/number of mice tested (converted)
[18] = read-out: MES: number of mice protected/number of mice tested
[19] = read-out: 6 Hz: number of mice protected/number of mice tested

T1 sequence (Q8NER1 whole entry): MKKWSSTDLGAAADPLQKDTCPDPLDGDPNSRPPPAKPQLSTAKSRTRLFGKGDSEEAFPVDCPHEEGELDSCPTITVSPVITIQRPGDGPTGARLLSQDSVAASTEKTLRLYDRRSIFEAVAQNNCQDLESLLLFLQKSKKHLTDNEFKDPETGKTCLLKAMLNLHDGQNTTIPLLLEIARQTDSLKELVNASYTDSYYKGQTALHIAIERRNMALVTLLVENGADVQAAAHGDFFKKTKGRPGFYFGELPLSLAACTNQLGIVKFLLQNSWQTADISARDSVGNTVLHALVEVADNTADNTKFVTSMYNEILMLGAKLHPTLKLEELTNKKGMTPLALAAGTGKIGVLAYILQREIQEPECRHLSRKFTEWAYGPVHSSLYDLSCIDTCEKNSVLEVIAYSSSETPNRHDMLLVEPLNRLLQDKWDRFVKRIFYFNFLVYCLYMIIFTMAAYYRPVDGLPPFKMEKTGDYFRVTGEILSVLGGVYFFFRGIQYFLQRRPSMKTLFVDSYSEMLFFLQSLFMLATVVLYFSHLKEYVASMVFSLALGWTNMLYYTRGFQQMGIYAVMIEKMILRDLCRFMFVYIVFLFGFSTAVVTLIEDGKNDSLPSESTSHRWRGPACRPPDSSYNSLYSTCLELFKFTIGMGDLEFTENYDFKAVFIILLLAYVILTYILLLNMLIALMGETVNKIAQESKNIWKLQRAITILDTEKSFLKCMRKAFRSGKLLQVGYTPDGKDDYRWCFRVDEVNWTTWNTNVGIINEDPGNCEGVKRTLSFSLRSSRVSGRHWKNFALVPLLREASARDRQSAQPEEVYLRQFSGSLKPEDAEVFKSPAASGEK

Cc1ccsc1C1CC(=O)N(CCN2CCOCC2)C1=O (racemic) [Compound 3, (R,S)-3-(3-Methylthiophen-2-yl)-1-(2-morpholinoethyl)pyrrolidine-2,5-dione hydrochloride]
responders at 100 mg/kg [1, 16]: 25%
ED50 ([2]; 32 mA): 74.3 mg/kg
responders at 100 mg/kg [2, 17]: 100%
6 Hz: tested animals protected ([2]; mice, 100 mg/kg, 32 mA): 100%
scPTZ: tested animals protected [3]: 50%
scPTZ: latency time to first seizure episode ([3]; control 436.8 ± 91.94 s): 1435 ± 234.9 s
scPTZ: prolongation of latency time to first seizure episode ([3]; vs control, p < 0.001): 228%
NT: number of mice with motor impairment/number of mice tested [4]: 0/4
Reduction of number of writhes (inhibition of writhing behavior) ([5]; 30 mg/kg): 34%
Reduction of number of writhes (inhibition of writhing behavior) ([5]; 45 mg/kg): 39%
Hot plate: prolongation of latency time to pain reaction [6]: inactive
% Inhibition of Control Specific Binding, Voltage-Sensitive Na+ Channel (site 2) [7]: 15.6%
% Inhibition of Control Specific Binding, Voltage-Sensitive Ca2+ Channel L-typ [8]: −1.1%
% Inhibition of Control Specific Binding, GABA Transporter (GAT) [9]: −1.1%
TRPV1 antagonist effect [10]: 14.8%
viability at 24 h [11]: > 94%
TD50 at 0.5 h [12]: > 200 mg/kg

Cc1ccsc1C1CC(=O)N(CCCN2CCOCC2)C1=O (racemic) [Compound 4, (R,S)-3-(3-Methylthiophen-2-yl)-1-(3-morpholinopropyl)pyrrolidine-2,5-dione hydrochloride]
responders at 100 mg/kg [1, 18]: 75%
ED50 [1]: 62.1 mg/kg
MES: tested animals protected ([1]; mice, 100 mg/kg): 75%
responders at 100 mg/kg [2, 19]: 75%
ED50 ([2]; 32 mA): 75.6 mg/kg
PI (TD50/ED50), 6 Hz [2]: < 2.65
6 Hz: tested animals protected ([2]; mice, 100 mg/kg, 32 mA): at least 75%
scPTZ: effect in words [3]: no significant effect
NT: number of mice with motor impairment/number of mice tested [4]: 0/4
Reduction of number of writhes (inhibition of writhing behavior) ([5]; 30 mg/kg): 29.8%
Hot plate: prolongation of latency time to pain reaction [6]: inactive
% Inhibition of Control Specific Binding, Voltage-Sensitive Na+ Channel (site 2) [7]: 42.1%
% Inhibition of Control Specific Binding, Voltage-Sensitive Ca2+ Channel L-typ [8]: 39.7%
% Inhibition of Control Specific Binding, GABA Transporter (GAT) [9]: −3.2%
viability at 24 h [11]: > 94%
TD50 at 0.5 h [12]: < 200 mg/kg

Cc1ccsc1C1CC(=O)N(CCCN2CCN(c3cccc(C(F)(F)F)c3)CC2)C1=O (racemic) [Compound 6, (R,S)-3-(3-Methylthiophen-2-yl)-1-(3-(4-(3-(trifluoromethyl)phenyl)piperazin-1-yl)propyl)pyrrolidine-2,5-dione hydrochloride]
responders at 100 mg/kg [1, 18]: 25%
responders at 100 mg/kg [2, 19]: 75%
ED50 ([2]; 32 mA): 78.3 mg/kg
PI (TD50/ED50), 6 Hz [2]: < 1.28
6 Hz: tested animals protected ([2]; mice, 100 mg/kg, 32 mA): at least 75%
NT: number of mice with motor impairment/number of mice tested [4]: 4/4
Reduction of number of writhes (inhibition of writhing behavior) ([5]; 30 mg/kg): 27%
Hot plate: prolongation of latency time to pain reaction [6]: 49%
% Inhibition of Control Specific Binding, Voltage-Sensitive Na+ Channel (site 2) [7]: 96.7%
% Inhibition of Control Specific Binding, Voltage-Sensitive Ca2+ Channel L-typ [8]: 69.9%
TRPV1 antagonist effect [10]: 74.8%
Hepatotoxicity in Hep G2 cells, in words [13]: no hepatotoxicity
Inhibition of viability of Hep G2 cells [13]: 13–28%
TD50 at 0.5 h [12]: < 100 mg/kg

Cc1ccsc1C1CC(=O)N(CCCN2CCN(c3ccc(Cl)c(Cl)c3)CC2)C1=O (racemic) [Compound 9, (R,S)-1-(3-(4-(3,4-Dichlorophenyl)piperazin-1-yl)propyl)-3-(3-methylthiophen-2-yl)pyrrolidine-2,5-dione hydrochloride]
ED50 [1]: > 130 mg/kg
responders at 100 mg/kg [1, 16]: 50%
MES: tested animals protected ([1]; mice, 100 mg/kg): 50%
ED50 ([2]; 32 mA): > 130 mg/kg
responders at 100 mg/kg [2, 17]: 50%
NT: number of mice with motor impairment/number of mice tested [4]: 0/4
Reduction of number of writhes (inhibition of writhing behavior) ([5]; 30 mg/kg): 61.44%
Hot plate: prolongation of latency time to pain reaction [6]: 43%
% Inhibition of Control Specific Binding, Voltage-Sensitive Na+ Channel (site 2) [7]: 78.8%
% Inhibition of Control Specific Binding, Voltage-Sensitive Ca2+ Channel L-typ [8]: −9.5%
TRPV1 antagonist effect [10]: 109.5%
Hepatotoxicity in Hep G2 cells, in words [13]: no hepatotoxicity
Inhibition of viability of Hep G2 cells [13]: 13–28%
TD50 at 0.5 h [12]: > 300 mg/kg

Cc1ccsc1C1CC(=O)N(CC(=O)N2CCN(c3cccc(Cl)c3)CC2)C1=O (racemic) [Compound 14, (R,S)-1-(2-(4-(3-Chlorophenyl)piperazin-1-yl)-2-oxoethyl)-3-(3-methylthiophen-2-yl)pyrrolidine-2,5-dione]
responders at 100 mg/kg [1, 16]: 0%
ED50 ([2]; 32 mA): 153 mg/kg
responders at 100 mg/kg [2, 17]: 50%
scPTZ: effect in words [3]: no significant effect
NT: number of mice with motor impairment/number of mice tested [4]: 0/4
TD50 at 0.5 h [12]: > 300 mg/kg

CCC1(C)CC(=O)NC1=O (centres unmarked) [ETX, ethosuximide]
MES: protection in words [14]: did not show protection
MES ED50 ([14]; mice ip, reference AEDs): > 500 mg/kg
6 Hz ED50 [15]: 221.7 (183.0–268.5) mg/kg
PI (TD50/ED50), 6 Hz [15]: 3.2 (6 Hz)

CCCC(CCC)C(=O)O [VPA, valproic acid]
PI (TD50/ED50), MES ([14]; mice ip, reference AEDs): 1.7
6 Hz ED50 [15]: 130.6 (117.6–145.2) mg/kg
PI (TD50/ED50), 6 Hz [15]: 3.3
